Laboratory results from paper PMC11358092, “Caspofungin enhances the potency of rifampin against Gram-negative bacteria” (Frontiers in Microbiology, 2024).
Read-outs that look alike come from different tables or passages of the source. Numbered stars: 1 amine (or outer) side, 2 acyl side, 3 side chain; on linkers, the order of the positions; unused ones are H or OH. Bridge positions count the residues as written; N and C are the ends. Square brackets hold non-standard residues; d marks the D form. Peptide text beside a SMILES is read from it. * marks the point of attachment. pTerphenylCO(4''-OnC5H11) = CCCCCOc1ccc(-c2ccc(-c3ccc(C(=O)*)cc3)cc2)cc1; Orn(4R-OH,5R-OH) = O=C([C@H](C[C@@H](O)[C@@H](O)N[*:3])N[*:1])[*:2]; hTyr(3S-OH,4S-OH) = N[C@H](C(=O)O)[C@H](O)[C@@H](O)c1ccc(O)cc1; Pro(3S-OH,4S-Me) = C[C@H]1CN[C@H](C(=O)O)[C@H]1O; Hyp = O=C(O)[C@@H]1C[C@@H](O)CN1

Key:
E. coli MG1655 [1] = assay: microbe, parasite or virus in culture; assay type: cell-based, Escherichia coli; conditions: for FICI in combination with rifampin: 8 × 8 checkerboard, FICI ≤0.5 indicates synergy; for Synergistic activity with rifampin (in words): checkerboard assays, analogs of CAS
Procedure: (§1) Checkerboard assays were performed to evaluate the synergistic effect of CAS in combination with antibiotics as previously described ([Cai et al., 2023]). Briefly, antibiotics and CAS were diluted two times with MHB medium (with or without Mg^2+ or EDTA) in a 96-well plate, respectively, to form an 8 × 8 medium, and an equal volume (200 μL/well) of bacterial suspension with the drug was cultured. A microplate reader was used to measure the OD600 value after 18 h of culture at 37°C (the OD600 value over 0.1 indicates bacterial growth). The fractional inhibitory concentration index (FICI) was calculated using the following formula: FICI = MICab/MICa + MICba/MICb. MICa and MICb are the corresponding MIC values of compounds A and B alone, respectively; MICab is the MIC value of compound A combined with compound B; and MICba is the MIC value of compound B combined with compound A. Indicative of synergy is FICI ≤0.5.

E. coli MG1655 [2] = assay: High-throughput screening of FDA-approved drug library for antibiotic adjuvants (growth inhibition, OD600); assay type: cell-based, Escherichia coli; conditions: library drug alone, LB medium, 96-well, 8 h static culture at 37°C, relative to PMBN (positive) and DMSO (negative) controls, %, table head prints no unit
E. coli MG1655 [3] = assay: as above; assay type: cell-based, Escherichia coli
K+ channel (KvQT1/minK) = conditions: vendor library annotation (Targetmol); ref Kang J, et al. J Pharmacol Exp Ther. 2001 Oct;299(1):290-6; read-out: IC50, K+ channel (KvQT1/minK) antagonist; cited from earlier work
From the text: Supplement Table_1.XLSX, sheet "Sheet1" | column: Bioactivity

E. coli 69 = assay: Checkerboard assay; assay type: cell-based, Escherichia coli; conditions: MHB, 18 h at 37°C, OD600
Procedure: as §1

E. coli 72 [4] = assay: Checkerboard assay; assay type: cell-based, Escherichia coli; conditions: multidrug-resistant strain, MHB, 18 h at 37°C, OD600
Procedure: as §1

E. coli ATCC25922 = assay: Checkerboard assay; assay type: cell-based, Escherichia coli; conditions: MHB, 18 h at 37°C, OD600
Procedure: as §1

[5] = tested on: Salmonella Typhimurium ATCC14028; assay: Checkerboard assay; assay type: cell-based; conditions: MHB, 18 h at 37°C, OD600
Procedure: as §1

P. aeruginosa PAO1 = assay: Checkerboard assay; assay type: cell-based, Pseudomonas aeruginosa; conditions: MHB, 18 h at 37°C, OD600
Procedure: as §1

E. coli 72 [6] = assay: Time-kill curve; assay type: cell-based, Escherichia coli; conditions: 1 × 10^6 CFU in MHB; CAS 32 μg/mL, rifampin 8 μg/mL, alone or combined; counted at 4, 8, 24 h
Procedure: (§2) At each time point (0, 4, 8, and 24 h), 100 μL of the bacterial solution was continuously diluted 10-fold in physiological saline. Subsequently, the suspension was then plated onto LB agar plates and cultured for an overnight period at 37°C for bacterial count.

E. coli MG1655 [7] = assay: Time-kill curve; assay type: cell-based, Escherichia coli; conditions: 1 × 10^6 CFU in MHB; CAS 16 μg/mL, rifampin 1 μg/mL, alone or combined; counted at 4, 8, 24 h
Procedure: as §2

E. coli 72 [8] = assay: Galleria mellonella infection model; assay type: in vivo; conditions: 2.25 × 10^5 CFU E. coli 72; CAS 64 mg/kg, rifampin 16 mg/kg, alone or in combination, injected via proleg; 10 larvae per group; survival over 48 h
[9] = library drug with 2 μg/mL rifampin, LB medium, 96-well, 8 h static culture at 37°C, OD600, relative to PMBN (positive) and DMSO (negative) controls, %, table head prints no unit

In the case of Micafungin sodium, the “FICI in combination with rifampin” value (E. coli MG1655 [1]; MHB, 18 h at 37°C) is reported as over 1 and the “Synergistic activity with rifampin (in words)” value (from here on “Synergistic activity”) (E. coli MG1655 [1]) is reported as “weak synergistic activity”.
With Pneumocandin B0 the “FICI in combination with rifampin” value (E. coli MG1655 [1]; MHB, 18 h at 37°C) was over 1 and the “Synergistic activity” value (E. coli MG1655 [1]) was “weak synergistic activity”.
With C=C1c2c(Cl)ccc(O)c2C(=O)C2=C(O)[C@]3(O)C(=O)C(C(N)=O)=C(O)[C@@H](N(C)C)[C@@H]3[C@@H](O)[C@H]12.O=C(O)c1cc(S(=O)(=O)O)ccc1O [Meclocycline sulfosalicylate salt] the “Growth inhibition, Compound” value (E. coli MG1655 [2]) was 100% and the “Growth inhibition, Compound + rifampin” value (E. coli MG1655 [3]) was 100%.
In the case of Streptozocin, the “Growth inhibition, Compound” value (E. coli MG1655 [2]) is reported as 62% and the “Growth inhibition, Compound + rifampin” value (E. coli MG1655 [3]) is reported as 69%.
With CCCCCOc1ccc(-c2ccc(-c3ccc(C(=O)N[C@H]4C[C@@H](O)[C@@H](O)NC(=O)[C@@H]5[C@@H](O)[C@@H](C)CN5C(=O)[C@H]([C@@H](C)O)NC(=O)[C@H]([C@H](O)[C@@H](O)c5ccc(O)cc5)NC(=O)[C@@H]5C[C@@H](O)CN5C(=O)[C@H]([C@@H](C)O)NC4=O)cc3)cc2)cc1 [Anidulafungin] ({pTerphenylCO(4''-OnC5H11)}-[Orn(4R-OH,5R-OH)]T[Hyp][hTyr(3S-OH,4S-OH)]T[Pro(3S-OH,4S-Me)]; lactam 1-C; N-terminus assumed) the “FICI in combination with rifampin” value (E. coli MG1655 [1]; MHB, 18 h at 37°C) was over 1 and the “Synergistic activity” value (E. coli MG1655 [1]) was “weak synergistic activity”.
For COS(=O)(=O)[O-].C[n+]1c2ccccc2nc2ccccc21 [Phenazine methosulfate], the “Growth inhibition, Compound” value (E. coli MG1655 [2]) was 80% and the “Growth inhibition, Compound + rifampin” value (E. coli MG1655 [3]; [9]) was 76%.
In the case of Colistimethate Sodium, the “Growth inhibition, Compound” value (E. coli MG1655 [2]) is reported as 94% and the “Growth inhibition, Compound + rifampin” value (E. coli MG1655 [3]; [9]) is reported as 95%.
With Colistin sulfate (1066-17-7 free base) the “Growth inhibition, Compound” value (E. coli MG1655 [2]) was 104% and the “Growth inhibition, Compound + rifampin” value (E. coli MG1655 [3]; [9]) was 113%.
With CN1CCN(c2c(F)cc3c(=O)c(C(=O)O)cn4c3c2SCC4)CC1.Cl [Rufloxacin hydrochloride] the “Growth inhibition, Compound” value (E. coli MG1655 [2]) was 113% and the “Growth inhibition, Compound + rifampin” value (E. coli MG1655 [3]) was 100%.
In the case of OC(c1cc(C(F)(F)F)nc2c(C(F)(F)F)cccc12)C1CCCCN1 (stereo not shown) [Mefloquine], the IC50 (K+ channel (KvQT1/minK)) is given as about 1000 nM.
In the case of “Echinocandin B nucleus hydrochloride [ECBN HCl]”, the “FICI in combination with rifampin” value (E. coli MG1655 [1]; MHB, 18 h at 37°C) is reported as over 1 and the “Synergistic activity” value (E. coli MG1655 [1]) is reported as “weak synergistic activity”.
For CO[C@@]1(NC(=O)CSC(F)F)C(=O)N2C(C(=O)[O-])=C(CSc3nnnn3CCO)CO[C@@H]21.[Na+] [Flomoxef sodium], the “Growth inhibition, Compound” value (E. coli MG1655 [2]) was 108% and the “Growth inhibition, Compound + rifampin” value (E. coli MG1655 [3]) was 101%.
For Colistin Methanesulfonate (sodium salt), the “Growth inhibition, Compound” value (E. coli MG1655 [2]) was 87% and the “Growth inhibition, Compound + rifampin” value (E. coli MG1655 [3]; [9]) was 102%.
For CO[C@H]1/C=C/O[C@@]2(C)Oc3c(C)c(O)c4c(O)c(c(/C=N/N5CCN(C)CC5)c(O)c4c3C2=O)NC(=O)/C(C)=C\C=C\[C@H](C)[C@H](O)[C@@H](C)[C@@H](O)[C@@H](C)[C@H](OC(C)=O)[C@@H]1C [rifampin], the “Growth inhibition, Compound” value (E. coli MG1655 [2]) was 101%, the MIC (E. coli MG1655 [1]; Escherichia coli, MG1655, rifampin alone, MHB, 18 h at 37°C, OD600) was 8 µg/mL and the “MIC of rifampin in combination with CAS” value (E. coli MG1655 [1]; rifampin with CAS, MHB, 18 h at 37°C, OD600) was 0.5 µg/mL. For the same molecule, the MIC (E. coli 69; Escherichia coli, 69, rifampin alone) was 8 µg/mL, the “MIC of rifampin in combination with CAS” value (E. coli 69; rifampin with CAS) was 0.5 µg/mL and the MIC (E. coli 72 [4]; Escherichia coli, 72, rifampin alone) was 64 µg/mL. For the same molecule, the “MIC of rifampin in combination with CAS” value (E. coli 72 [4]; rifampin with CAS) was 0.5 µg/mL, the MIC (E. coli ATCC25922; Escherichia coli, ATCC25922, rifampin alone) was 4 µg/mL and the “MIC of rifampin in combination with CAS” value (E. coli ATCC25922; rifampin with CAS) was 0.25 µg/mL. The MIC ([5]; Salmonella enterica, rifampin alone) was 16 µg/mL, the “MIC of rifampin in combination with CAS” value ([5]; rifampin with CAS) was 0.5 µg/mL and the MIC (P. aeruginosa PAO1; Pseudomonas aeruginosa, PAO1, rifampin alone) was 16 µg/mL. For the same molecule, the “MIC of rifampin in combination with CAS” value (P. aeruginosa PAO1; rifampin with CAS) was 0.5 µg/mL, the “Time-kill, bacterial count” value (E. coli 72 [6]) was “no antimicrobial efficacy” and the “Time-kill, bacterial count” value (E. coli MG1655 [7]) was “no antimicrobial efficacy”. For the same molecule, the “Death/mortality rate of G. mellonella larvae challenged with E. coli 72” value (E. coli 72 [8]) was “could not reduce the death rate”.
With O=C(Cn1cnnn1)N[C@@H]1C(=O)N2C(C(=O)[O-])=C(CSc3nncs3)CS[C@H]12.[Na+] [Ceftezole sodium] the “Growth inhibition, Compound” value (E. coli MG1655 [2]) was 109% and the “Growth inhibition, Compound + rifampin” value (E. coli MG1655 [3]) was 102%.
